Experimental data from PubChem BioAssay AID1918930 (Molecular Pharmacology Branch, DTP, NCI, 2023).

Tested on: 233499-124-R-J3-PDC complex spheroid viability, % test/control
Assay: Anticancer human tumor 233499-124-R-J3-PDC patient-derived colon adenocarcinoma cell line growth inhibition
Settings: for IC50: curve of first compound; for viability, T/C: stronger effect = lower value
Method in brief: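 Drug combinations with the LSD1 inhibitor iadademstat tested on tumor cells co-cultured as spheroids with endothelial cells and mesenchymal stem cells. Concentrations descended in half-log increments from clinical Cmax or 10 microM.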

[1] = second compound 0.1 µM, first compound 0.00949 µM
[2] = second compound 0.1 µM, first compound 0.03 µM
[3] = second compound 0.1 µM, first compound 0.0949 µM
[4] = second compound 0.1 µM, first compound 0.3 µM
[5] = second compound 0.316 µM, first compound 0.00949 µM
[6] = second compound 0.316 µM, first compound 0.03 µM
[7] = second compound 0.316 µM, first compound 0.0949 µM
[8] = second compound 0.316 µM, first compound 0.3 µM
[9] = second compound 1 µM, first compound 0.00949 µM
[10] = second compound 1 µM, first compound 0.03 µM
[11] = second compound 1 µM, first compound 0.0949 µM
[12] = second compound 1 µM, first compound 0.3 µM
[13] = second compound 3.16 µM, first compound 0.00949 µM
[14] = second compound 3.16 µM, first compound 0.03 µM
[15] = second compound 3.16 µM, first compound 0.0949 µM
[16] = second compound 3.16 µM, first compound 0.3 µM
[17] = second compound 10 µM, first compound 0.00949 µM
[18] = second compound 10 µM, first compound 0.03 µM
[19] = second compound 10 µM, first compound 0.0949 µM
[20] = second compound 10 µM, first compound 0.3 µM
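Note: spheroids exposed to agents for one week before readout.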

CCc1c2c(nc3ccc(O)cc13)-c1cc3c(c(=O)n1C2)COC(=O)[C@]3(O)CC + NC1CC1c1ccc(-c2cccc(O)c2)cc1
IC50 (second compound 0.1 µM): 25.6 nM | IC50 (second compound 0.316 µM): 22.6 nM | IC50 (second compound 1 µM): 24.5 nM | IC50 (second compound 3.16 µM): 27.6 nM | IC50 (second compound 10 µM): 50.3 nM | viability, T/C (second compound 0.1 µM, first compound 0.000949 µM): 88% | viability, T/C (second compound 0.1 µM, first compound 0.003 µM): 122% | viability, T/C [1]: 90.8% | viability, T/C [2]: 44.2% | viability, T/C [3]: 27.7% | viability, T/C [4]: 29.5% | viability, T/C (second compound 0.316 µM, first compound 0.000949 µM): 103% | viability, T/C (second compound 0.316 µM, first compound 0.003 µM): 112% | viability, T/C [5]: 88.1% | viability, T/C [6]: 38.3% | viability, T/C [7]: 25.2% | viability, T/C [8]: 30.3% | viability, T/C (second compound 1 µM, first compound 0.000949 µM): 70.4% | viability, T/C (second compound 1 µM, first compound 0.003 µM): 112% | viability, T/C [9]: 101% | viability, T/C [10]: 40.6% | viability, T/C [11]: 19.6% | viability, T/C [12]: 30.4% | viability, T/C (second compound 3.16 µM, first compound 0.000949 µM): 77.6% | viability, T/C (second compound 3.16 µM, first compound 0.003 µM): 109% | viability, T/C [13]: 98.6% | viability, T/C [14]: 46.4% | viability, T/C [15]: 31.5% | viability, T/C [16]: 24.6% | viability, T/C (second compound 10 µM, first compound 0.000949 µM): 65.1% | viability, T/C (second compound 10 µM, first compound 0.003 µM): 88.5% | viability, T/C [17]: 105% | viability, T/C [18]: 59.7% | viability, T/C [19]: 43.8% | viability, T/C [20]: 32.4%

Nc1ccccc1NC(=O)c1ccc(CNC(=O)OCc2cccnc2)cc1 + NC1CC1c1ccc(-c2cccc(O)c2)cc1
IC50 (second compound 0.1 µM): 453 nM | IC50 (second compound 0.316 µM): 374 nM | IC50 (second compound 1 µM): 246 nM | IC50 (second compound 3.16 µM): 387 nM | IC50 (second compound 10 µM): 338 nM | viability, T/C [1]: 80.8% | viability, T/C [2]: 106% | viability, T/C [3]: 100% | viability, T/C [4]: 71.4% | viability, T/C (second compound 0.1 µM, first compound 0.949 µM): 11.4% | viability, T/C (second compound 0.1 µM, first compound 3 µM): 3.1% | viability, T/C [5]: 101% | viability, T/C [6]: 106% | viability, T/C [7]: 93.1% | viability, T/C [8]: 59.9% | viability, T/C (second compound 0.316 µM, first compound 0.949 µM): 11.3% | viability, T/C (second compound 0.316 µM, first compound 3 µM): 1.9% | viability, T/C [9]: 101% | viability, T/C [10]: 98.8% | viability, T/C [11]: 75% | viability, T/C [12]: 47.7% | viability, T/C (second compound 1 µM, first compound 0.949 µM): 9.92% | viability, T/C (second compound 1 µM, first compound 3 µM): 2.32% | viability, T/C [13]: 84.4% | viability, T/C [14]: 76.1% | viability, T/C [15]: 79.8% | viability, T/C [16]: 60.5% | viability, T/C (second compound 3.16 µM, first compound 0.949 µM): 12.9% | viability, T/C (second compound 3.16 µM, first compound 3 µM): 2.93% | viability, T/C [17]: 71.4% | viability, T/C [18]: 79.6% | viability, T/C [19]: 78.2% | viability, T/C [20]: 54.6% | viability, T/C (second compound 10 µM, first compound 0.949 µM): 8.25% | viability, T/C (second compound 10 µM, first compound 3 µM): 1.7%

O=C(c1cc(Cc2n[nH]c(=O)c3ccccc23)ccc1F)N1CCN(C(=O)C2CC2)CC1 + NC1CC1c1ccc(-c2cccc(O)c2)cc1
IC50 (second compound 0.1 µM): > 10000 nM | IC50 (second compound 0.316 µM): > 10000 nM | IC50 (second compound 1 µM): > 10000 nM | IC50 (second compound 3.16 µM): > 10000 nM | IC50 (second compound 10 µM): > 10000 nM | viability, T/C (second compound 0.1 µM, first compound 0.0316 µM): 96.9% | viability, T/C (second compound 0.1 µM, first compound 0.1 µM): 92.2% | viability, T/C (second compound 0.1 µM, first compound 0.316 µM): 98.5% | viability, T/C (second compound 0.1 µM, first compound 1 µM): 97.8% | viability, T/C (second compound 0.1 µM, first compound 3.16 µM): 100% | viability, T/C (second compound 0.1 µM, first compound 10 µM): 73.2% | viability, T/C (second compound 0.316 µM, first compound 0.0316 µM): 94.2% | viability, T/C (second compound 0.316 µM, first compound 0.1 µM): 106% | viability, T/C (second compound 0.316 µM, first compound 0.316 µM): 106% | viability, T/C (second compound 0.316 µM, first compound 1 µM): 87.2% | viability, T/C (second compound 0.316 µM, first compound 3.16 µM): 91.1% | viability, T/C (second compound 0.316 µM, first compound 10 µM): 79.3% | viability, T/C (second compound 1 µM, first compound 0.0316 µM): 78.3% | viability, T/C (second compound 1 µM, first compound 0.1 µM): 91.6% | viability, T/C (second compound 1 µM, first compound 0.316 µM): 91.6% | viability, T/C (second compound 1 µM, first compound 1 µM): 79% | viability, T/C (second compound 1 µM, first compound 3.16 µM): 73.4% | viability, T/C (second compound 1 µM, first compound 10 µM): 68.5% | viability, T/C (second compound 3.16 µM, first compound 0.0316 µM): 87.6% | viability, T/C (second compound 3.16 µM, first compound 0.1 µM): 83.4% | viability, T/C (second compound 3.16 µM, first compound 0.316 µM): 71.6% | viability, T/C (second compound 3.16 µM, first compound 1 µM): 84.6% | viability, T/C (second compound 3.16 µM, first compound 3.16 µM): 66.5% | viability, T/C (second compound 3.16 µM, first compound 10 µM): 63% | viability, T/C (second compound 10 µM, first compound 0.0316 µM): 77.6% | viability, T/C (second compound 10 µM, first compound 0.1 µM): 75.1% | viability, T/C (second compound 10 µM, first compound 0.316 µM): 71.9% | viability, T/C (second compound 10 µM, first compound 1 µM): 68% | viability, T/C (second compound 10 µM, first compound 3.16 µM): 58.6% | viability, T/C (second compound 10 µM, first compound 10 µM): 62.7%
